# Legend:
# Format in all cases: cell-based, human
# frataxin precursor = assay: Western blot of frataxin in HEK293 Flp-In cells stably transfected with frataxin (HEK293-fxn)
# Protocol: For the validation steps, etravirine (TMC125) was purchased from Selleckchem and was dissolved in DMSO at a stock concentration of 10 mM. HEK-293 Flp-In cells, stably overexpressing frataxin, were treated with the drug (or only DMSO) for 24 hours at final concentration of 10 μM. FRDA cells were treated with different concentration of etravirine. For all drug (and no drug) treatments, the final concentration of DMSO in the cell culture medium was 0.1%.
# Total cell extracts were prepared in lysis buffer (50 mM Tris-HCl, pH 7.5, 150 mM NaCl, 1% Igepal CA-630, 5 mM EDTA, 5 mM EGTA) supplemented with complete protease inhibitor cocktail (Roche Diagnostics, Indianapolis, Ind., USA). […] The immunoreactive bands were detected by ECL (GE Healthcare, Chalfont St. Giles, UK) and imaged with a ChemiDoc XRS system (Bio-Rad). […] All values are expressed as means±1 S.E.M.
# The identified candidate drugs were individually validated for their ability to promote frataxin accumulation in different cell types. […] Protein extracts from the cell lines were resolved on SDS-PAGE and analyzed by western blot with anti-frataxin antibody and anti-tubulin as a loading control. […]
# HEK 293-fxn stably expressing frataxin (A), HEK 293 (B), or FRDA lymphoblast cell line GM16203 (C) were treated with 10 μM etravirine for the indicated time points. Protein extracts were resolved on SDS-PAGE and analyzed by western blot with anti-frataxin antibody and anti-tubulin as a loading control. […] Quantitative analysis of newly-synthesized FXN mRNA was performed by metabolic labeling of nascent RNA using the Click-iT Nascent RNA Capture Kit (Life Technologies), followed by biotin conjugation and isolation with streptavidin beads, according to provider instructions. Nascent frataxin transcripts levels were quantitated by real-time PCR relative to the expression of the control genes ACTB, GUSB and ATP5J. […] Relative levels of total frataxin mRNA were measured by real-time PCR and normalized on expression levels of three control genes ATP5J, GUSB and ACTB using the ΔΔCt method. […]
# aconitase = assay: Aconitase activity in FRDA lymphoblast extracts (spectrophotometric, 340 nm); conditions: GM16214 lymphoblasts, 500 nM etravirine, after 48 hours, compared with GM16215
# Protocol: Whole-cell extracts from GM16215 lymphoblasts, GM16214 lymphoblasts and GM16214 lymphoblasts treated with etravirine were prepared in ice-cold CelLytic M buffer (Sigma-Aldrich) supplemented with 2 mM sodium citrate and Complete EDTA-free protease inhibitor cocktail (Roche Diagnostic). Spectrophotometric aconitase assays were performed at 25° C. with 100 μg of cell extracts using the BIOXYTECH Aconitase-340™ Assay (OxisResearch™ 21041). Spectrophotometric citrate synthase activities were assessed at 25° C. with 10-20 μg of cell extracts using the Citrate Synthase Assay Kit (Sigma-Aldrich CS0720). […] For the calculation of the activities, one unit of enzyme was expressed as the amount of protein that converted 1 μmol of substrate per minute at 25° C. Quantitative data are presented as mean±SEM of at least three independent experiments.
# To further explore the therapeutic potential of etravirine, we considered its ability to correct some of the defects associated with frataxin loss in cells derived from patients. […] To evaluate whether the increase in frataxin levels promoted by etravirine treatment is sufficient to restore ISC biogenesis in FRDA patient-derived cells, we measured the activity of aconitase upon etravirine treatment and compared it to the activity observed in cells derived from the healthy carrier parent. […]
# frataxin = assay: Western blot of frataxin in lymphoblastoid cell lines derived from FRDA patients; conditions: GM16214, 500 nM etravirine, 24 and 48 hours, compared with GM16215
smiles,measurement,setting,value
Cc1cc(C#N)cc(C)c1Oc1nc(Nc2ccc(C#N)cc2)nc(N)c1Br [etravirine],increase in frataxin precursor levels (densitometric ratio frataxin precursor/tubulin),"frataxin precursor; HEK293-fxn, 10 μM of each candidate drug, 24 h",striking upregulation
same,amount of frataxin precursor,"frataxin precursor; HEK293-fxn, etravirine at 10 (μM), detectable after 4 hours, higher after 12 hours",rapid and robust increase
same,frataxin accumulation compared with MG132 treatment,"frataxin precursor; etravirine vs general proteasome inhibitor MG132, cell system not stated",strikingly stronger
same,aconitase activity in FRDA cells,aconitase,restore aconitase activity
same,frataxin levels in FRDA cells during etravirine treatment,frataxin,increase over time

# — US10426775B2, “Methods for treating Friedreich's ataxia with etravirine” (Fratagene Therapeutics srl, priority 2017, dated 2019)
